Laboratory results from article PMC11345830, “Exploration of Hydrazide-Based HDAC8 PROTACs for the Treatment of Hematological Malignancies and Solid Tumors” (Journal of Medicinal Chemistry, 2024).

Legend:
Assay type in all cases: cell-based
[1] = test system: HEL cells; test: Cell viability MTS assay, HEL; conditions: ratio of IC50 values
Description: MTS assay was used to measure the cell viability. For single treatment, Jurkat, THP-1 and HEL (8000 cells/well), HCT116 and A549 (2000 cells/well) were seeded in 96-well plates in 100 μL complete medium. After overnight incubation, 50 μL of media containing various concentrations of compounds or the vehicle were added to each well. For cotreatment, cells were seeded in 96-well plates in 50 μL complete medium. After overnight incubation, 50 μL of Z-VAD-FMK, Nec-1, Fer-1, CQ, and other indicated compounds were added to each well. One hour later, 50 μL of media containing various concentrations of compounds were added to each well. After 72 h of treatment, 20 μL of CellTiter 96 AQueous One Solution reagent (Promega, Madison, USA) was added to each well according to manufacturer’s protocol. Plates were incubated at 37 °C for 1–2 h. The absorbance was determined at a wavelength of 490 nm using a Synergy H1 plate reader (Biotek, Winooski, VT, USA).

[2] = target: T1, HDAC11 (Homo sapiens, UniProt Q96DB2); test: HDAC11 level in Jurkat cells, Western blot; conditions: 6 h
T1 construct: endogenous in cells; host or cells: Jurkat
T1 sequence (Q96DB2 1-347): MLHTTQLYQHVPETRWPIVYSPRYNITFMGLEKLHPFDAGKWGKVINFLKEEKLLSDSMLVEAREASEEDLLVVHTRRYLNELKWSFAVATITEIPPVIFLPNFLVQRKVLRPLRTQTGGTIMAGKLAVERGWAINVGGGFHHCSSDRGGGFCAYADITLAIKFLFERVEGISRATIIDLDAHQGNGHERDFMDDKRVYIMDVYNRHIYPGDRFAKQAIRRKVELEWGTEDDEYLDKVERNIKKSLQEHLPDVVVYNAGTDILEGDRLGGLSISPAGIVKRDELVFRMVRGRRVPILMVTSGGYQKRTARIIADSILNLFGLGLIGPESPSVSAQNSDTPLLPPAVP

[3] = target: T2, HDAC6 (Homo sapiens, UniProt Q9UBN7); test: HDAC6 level in Jurkat cells, Western blot; set-up: endogenous in cells; host or cells: Jurkat; conditions: 6 h
T2 sequence (Q9UBN7 1-1215): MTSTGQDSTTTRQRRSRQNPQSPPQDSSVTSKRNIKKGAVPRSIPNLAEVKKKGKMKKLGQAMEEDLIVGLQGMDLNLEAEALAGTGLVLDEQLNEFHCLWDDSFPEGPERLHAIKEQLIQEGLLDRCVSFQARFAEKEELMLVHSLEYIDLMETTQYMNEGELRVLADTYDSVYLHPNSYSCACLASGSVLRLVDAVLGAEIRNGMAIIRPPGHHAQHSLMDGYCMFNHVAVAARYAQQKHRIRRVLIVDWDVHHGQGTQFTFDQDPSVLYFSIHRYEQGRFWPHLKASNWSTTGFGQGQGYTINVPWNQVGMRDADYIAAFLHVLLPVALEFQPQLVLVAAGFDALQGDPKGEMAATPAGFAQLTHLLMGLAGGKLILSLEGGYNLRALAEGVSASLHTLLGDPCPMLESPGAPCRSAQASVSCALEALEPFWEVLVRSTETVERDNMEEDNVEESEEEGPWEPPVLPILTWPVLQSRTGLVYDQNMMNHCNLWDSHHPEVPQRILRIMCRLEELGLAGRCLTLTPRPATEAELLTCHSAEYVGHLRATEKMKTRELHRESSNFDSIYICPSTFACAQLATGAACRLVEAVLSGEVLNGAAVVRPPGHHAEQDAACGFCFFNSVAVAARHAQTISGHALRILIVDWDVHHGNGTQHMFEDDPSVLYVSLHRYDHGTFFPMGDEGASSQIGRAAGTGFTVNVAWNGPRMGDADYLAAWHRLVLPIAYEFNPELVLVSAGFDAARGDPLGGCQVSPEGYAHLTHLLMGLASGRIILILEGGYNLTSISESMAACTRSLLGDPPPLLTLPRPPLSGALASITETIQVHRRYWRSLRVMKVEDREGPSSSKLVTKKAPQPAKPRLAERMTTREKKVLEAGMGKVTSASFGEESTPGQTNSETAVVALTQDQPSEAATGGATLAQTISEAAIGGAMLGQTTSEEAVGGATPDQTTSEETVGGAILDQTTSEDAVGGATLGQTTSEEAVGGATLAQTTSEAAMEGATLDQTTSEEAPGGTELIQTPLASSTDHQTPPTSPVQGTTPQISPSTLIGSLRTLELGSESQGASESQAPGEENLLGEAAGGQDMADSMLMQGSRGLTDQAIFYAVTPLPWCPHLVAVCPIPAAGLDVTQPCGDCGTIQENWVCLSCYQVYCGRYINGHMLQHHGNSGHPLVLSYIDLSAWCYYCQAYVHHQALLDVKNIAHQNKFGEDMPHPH

[4] = test system: acetyl-SMC3 (Ac-SMC3); test: Ac-SMC3 level in HCT116 cells, Western blot; conditions: 6 h
[5] = test system: HCT116 cells; test: Lipid peroxidation detection (BODIPY 581/591 C11), HCT116; conditions: 24 h, low micromolar concentrations
Description: Jurkat cells (5 × 10^5), HCT116 cells (3 × 10^5) and THP-1 cells (5 × 10^5) were seeded on 6-well plates. The next day, cells were treated with indicated concentrations of compounds for 24 or 48 h. Then, cells were stained with 1.3 μM of BODIPY 581/591 C11 (Invitrogen, D3861) for another 1 h at 37 °C. Later, cells were harvested and washed three times with ice-cold PBS, followed by resuspended in FACS buffer (1% BSA in PBS). Lipid peroxidation was determined by NovoCyte Quanteon Flow Cytometer (Agilent Technologies, CA, USA).

[6] = test system: HCT116 cells; test: Cell cycle analysis, HCT116; conditions: 48 h, control group 23.0%
Description: Jurkat cells (5 × 10^5) and HCT116 cells (3 × 10^5) were seeded on 6-well plates. The next day, cells were treated with indicated concentrations of compounds for 48 h. Cells were harvested after incubation, washed twice in cold PBS, centrifuged, and stained with a solution containing 20 μg/mL of Propidium iodide (PI) and 0.1% (v/v) Triton-X100 for 15 min at room temperature, followed by detection with NovoCyte Quanteon Flow Cytometer (Agilent Technologies, CA, USA).

[7] = test system: Jurkat cells; test: Cell death determination by flow cytometry (Hoechst 33342/PI), Jurkat; conditions: 5 μM, 48 h
Description: Jurkat cells (5 × 10^5) were seeded on 6-well plates. The next day, cells were treated with indicated concentrations of compounds for 48 h. Cells were harvested after incubation, washed twice in cold PBS, centrifuged, and stained with 7 μM Hoechst 33342 and 2 μM of Propidium iodide (PI) sequentially, and then determined by NovoCyte Quanteon Flow Cytometer (Agilent Technologies, CA, USA). Cells stained only with Hoechst 33342 were counted as live cells, while cells stained with both Hoechst 33342 and PI were counted as dead cells.

CCCCCCNNC(=O)c1ccc(CNC(=O)CN2CCC(c3ccc(NC4CCC(=O)NC4=O)cc3)CC2)cc1 (stereo not shown) [Z16, 2-(4-(4-((2,6-Dioxopiperidin-3-yl)amino)phenyl)piperidin-1-yl)-N-(4-(2-hexylhydrazine-1-carbonyl)benzyl)acetamide]
less potent than SAHA against HEL cells [1]: about 10 fold | HDAC11 degradation (in words) [2]: no obvious | HDAC6 degradation (in words) [3]: no obvious | concentration at which increased acetylation of SMC3 started [4]: 40 nM | lipid peroxidation (in words) [5]: induced lipid peroxidation in a dose-dependent manner | proportion of cells at G2/M phase ([6]; 0.13 μM): 24.1% | proportion of cells at G2/M phase ([6]; 0.37 μM): 26.4% | proportion of cells at G2/M phase ([6]; 1.1 μM): 26.2% | proportion of cells at G2/M phase ([6]; 3.3 μM): 38.8% | cell death induced [7]: 10%
